Results on 6 compounds are retold here after patent US20100075894A1, “REDUCING ER STRESS IN THE TREATMENT OF OBESITY AND DIABETES” (HARVARD UNIVERSITY, priority 2004, published 2010).

Entries after “also recorded” stand apart in the source; their conditions may differ.

Test [1] concerns ob/ob mice. Description: TMAO in ob/ob mice: fed blood glucose, serum insulin. Type of test: in vivo, mouse. Here is the method: Experiments were performed using the ob/ob genetic model of obesity and insulin resistance (C57BL/6J-Lep-ob mice purchased from Jackson Laboratory, Bar Harbor, Me.). At seven weeks of age, treatments were started after acclimatization for 5 days by administration of PBS. After this period, TMAO (Sigma, T0514) was dissolved in PBS and administered by intraperitoneal (IP) injection every 24 hours at a dose of 1 g/kg/day. At the indicated days, fed blood glucose levels were measured at 8:00 AM using an automated glucometer system. For insulin measurements, blood samples were collected after 6 hours of fasting and serum insulin levels were determined using a specific ELISA (Crystal Chem, 90060). Each treatment group contained at least six animals per experimental group.

Test [2] relates to ER stress. Briefly: ER stress markers in animals, western blot after treatment with the compound. The test is classed as in vivo. Particulars: for ER stress: overall statement; for activation of JNK / phosphorylation of IRE-1α / phosphorylation of PERK: animals treated with the compound, western blot. From the text: (§1) For example, obesity increases the demand on the synthetic machinery of the cell in many secretory organ systems and is also associated with abnormalities in intracellular energy fluxes and nutrient availability. The present invention stems from the recognition that many of these diseases associated with obesity cause ER stress, particularly in peripheral tissues, and that ER stress is involved in triggering insulin resistance and type 2 diabetes, two sequelae of obesity. […] The agents useful in the treatment of these diseases include small molecules, proteins, nucleic acids, and any other chemical compounds known to reduce or prevent ER stress. These agents make act in any manner that reduces or prevents ER stress such as reducing the production of mutant or misfolded proteins, increasing the expression of ER chaperones, increasing the stability of proteins, boosting the processing capacity of the ER, etc. Particularly useful agents include chemical chaperones such as 4-phenyl butyrate (PBA), tauroursodeoxycholic acid (TUDCA), trimethylamine N-oxide (TMAO), glycerol, D2O, dimethylsufloxide, glycine betaine, methyl amines, and glycerophosphocholine. […] The agents may be administered in any manner known in the drug delivery art although preferably the agent is delivered orally or parenterally. Dose ranges for these agents depend on the agent being delivered as well as other factors but will typically be from 10 mg/kg/day to 10 g/kg/day.
For orientation: Immunoblotting shows a protein as a band on a membrane.

In test [3] the test system is JNK. Briefly: JNK activity in liver tissue of obese mice after PBA. Type of test: in vivo, mouse. Particulars: FIG. 21.
The test system of test [4] is ob/ob mice. Briefly: 4-PBA in ob/ob mice: blood glucose, insulin tolerance test. The test is classed as in vivo, mouse. Particulars: for blood glucose levels / insulin sensitivity in vivo: ob/ob mice. The procedure:
A genetic (ob/ob) model of mouse obesity was used to analyze the effects of 4-phenyl butyrate (4-PBA) on insulin sensitivity and hyperglycemia. 10-12 weeks old, male, leptin deficient mice were obtained from Jackson Labs, acclimated by three times injection of PBS (3 times a day) for 4 days, and treated either with intraperitoneal injection of 4-PBA (1 g/kg/day in three divided doses) or phosphate buffer saline (PBS) (3 doses of 100 μl) for a period of 7 days. Fed blood glucose levels (mg/dl) at the 3rd and 7th days of trial (a). Insulin Tolerance Test (ITT) were performed on the 7th day after the first injection (b).
A genetic (ob/ob) model of mouse obesity was used to analyze the effects to 4-phenyl butyrate (4-PBA) on insulin sensitivity and hyperglycemia. 8-10 weeks old, male, leptin deficient mice were obtained from Jackson Labs, acclimated by PBS injection (2 times a day) for 4 days, and treated either with 4-PBA (500 mg/kg/day in two divided doses) or phosphate buffer saline (PBS) (2 doses of 200 μl) for a period of 20 days. Body weight during the treatment period (a). Blood glucose levels (mg/dl) after 6 hours of fasting at day 0 and day 20 (b). Insulin (ng/ml) levels at day 0 and day 20 (c). Insulin tolerance tests were performed at the 15th day of the treatment (d).
Animal Studies and Obesity Models: Adult (10-12 weeks of age) male ob/ob mice and their wild type (WT) littermates were purchased from Jackson Labs. Mice used in the diet-induced obesity model were male C57BL/6. All mice were placed on high fat diet (HFD: 35.5% fat, 20% protein, 32.7% carbohydrates, Bio-Serve) immediately after weaning (at ˜3 weeks of age). The XBP-1^+/− and XBP-1^+/+ mice were on Balb/C genetic background. Insulin and glucose tolerance tests were performed as previously described (Hirosumi et al., Nature 420:333 (2002); incorporated herein by reference). Insulin and C-peptide ELISA were performed according to manufacturer's instructions using mouse standards (Crystal Chem. Inc., Downers Grove, Ill.). Pancreas isolated from 16-week-old mice was fixed in Bouin's fluid and formalin, and paraffin sections were double-stained with guinea pig anti-insulin and rabbit anti-glucagon antibodies. Texas red dye conjugated donkey anti-guinea pig IgG and FITC conjugated Goat anti-rabbit IgG were used as secondary antibodies.

Test [5] has as its system insulin receptor signaling. Description: insulin receptor signaling in animals after treatment. The settings on record: for serine phosphorylation of Akt / tyrosine phosphorylation of insulin receptor, insulin substrate 1-IRS-1 and IRS-1: animals; for insulin (receptor) signaling: overall statement. Type of test: in vivo.
Description: as §1

Test [6] has as its system Fao liver cells. Description: ER stress inducers and insulin action in Fao liver cells. Type of test: cell-based, rat. The settings on record: Fao cells, FIG. 12A. The procedure: (A) ER stress was induced in Fao liver cells by a 3-hour treatment with 5 μg/ml tunicamycin (Tun). Cells were subsequently stimulated with insulin (Ins). IRS-1 tyrosine and serine (Ser307) phosphorylation, Akt phosphorylation (Ser473), insulin receptor (IR) tyrosine phosphorylation, and their total protein levels were examined using either immunoprecipitation (IP) followed by immunoblotting (IB) or direct immunoblotting. (B) Quantitation of IRS-1 (tyrosine and Ser307), Akt (Ser473), and IR (tyrosine) phosphorylation under the experimental conditions described in (A) with normalization to protein levels for each molecule. (C) Inhibition of ER stress-induced (300 nM thapsigargin for 4 hours) Ser307 phosphorylation of IRS-1 by JNK-1 inhibitor, SP600125 (JNKi, 25 μM), (D) Quantitation of IRS-1 Ser307 phosphorylation under conditions described in (C). (E) Reversal of ER stress-induced inhibition of insulin-stimulated tyrosine phosphorylation (pY) of IRS-1 by a JNK inhibitor. (F) Quantitation of insulin-induced IRS-1 tyrosine phosphorylation levels described in (E). (G) JNK activity, Ser307 phosphorylation of IRS-1, and total IRS-1 levels at indicated times following tunicamycin treatment (Tun, 10 μg/ml for 1 hour) in IRE-1α^+/+ and IRE-1α^−/− fibroblasts. (H) Insulin-stimulated IRS-1 tyrosine phosphorylation and total IRS-1 levels following tunicamycin treatment (Tun, 10 μg/ml for 1 hour) in IRE-1α^+/+ and IRE-1α^−/− fibroblasts. […] All graphs show mean±SEM from at least 2 independent experiments and statistical significance from the controls is indicated by * with p<0.005.
(A) ER stress was induced in Fao cells by 1 hour treatment with 300 nM thapsigargin (Thap), and cells were subsequently stimulated with insulin (Ins). IRS-1 tyrosine phosphorylation (pY) and serine phosphorylation (pSer307), insulin receptor (IR) tyrosine phosphorylation, and total protein levels were examined using either immunoprecipitation (IP) followed by immunoblotting (IB) or direct immunoblotting. (B) Fao cells were treated with sulindac sulfide (SS: 0, 7.5, 30, and 60 μM) for 45 minutes with or without an additional hour of exposure to 300 nM thapsigargin (Thap). IRS-1 serine phosphorylation and total IRS-1 protein levels were examined as described above.
To investigate whether ER stress interferes with insulin action, we pretreated Fao liver cells with tunicamycin and thapsigargin, agents commonly used to induce ER stress. […] IRS-1 is a substrate for insulin receptor tyrosine kinase and serine phosphorylation of IRS-1, particularly mediated by JNK, reduces insulin receptor signaling (Hirosumi et al., Nature 420:333 (2002); incorporated herein by reference).
Cells: Rat Fao liver cells were cultured with RPMI 1640 (Gibco, Grand Island, N.Y.) containing 10% fetal bovine serum (FBS). […]

Test [7] concerns ob/ob mice. Briefly: sodium 4-phenylbutyrate and metformin in ob/ob mice: fed blood glucose. Type of test: in vivo, mouse. Particulars: oral gavage daily, 200 mg/kg/day (each), fed state. The procedure: Experiments are performed using the ob/ob genetic model of obesity and insulin resistance (C57B6. V-Lepob/OlaHsd mice were purchased from Harlan Teklad, Madison, Wis.). At seven weeks of age, treatments were started after acclimatization for 5 days by administration of PBS. After this period, PBS, sodium 4-phenylbutyrate (200 mg/kg/day), metformin (200 mg/kg/day), and sodium 4-phenylbutyrate plus metformin (200 mg/kg/day each) were administered into four separate experimental groups of mice (with at least six mice in each group) by oral gavage daily. […] Blood glucose levels were measured at the fed state at 8:00 AM.

In test [8] the test system is ob/ob mice. Briefly: TUDCA in ob/ob mice: blood glucose, ITT. The test is classed as in vivo, mouse. Here is the method:
9-10 weeks old ob/ob and their age and sex matched lean controls were used to analyze the effects of TUDCA on glucose metabolism and diabetes. After acclimation with PBS injection (once a day, 200 μl i.p. injection) for 4 days, mice were injected intraperitoneally with TUDCA (500 mg/kg once a day in 200 μl of PBS) (n=6 for lean and n=7 for ob/ob) and PBS (200 μl) (n=6 lean and n=7 for ob/ob). Blood glucose levels on the 4th, 7th, and 10th days after first injection (a). ITT on 10 days after the first injection (b).

Setting [9] is: FIG. 7, animals with insulin resistance and type 2 diabetes, 1 g/kg/day IP.

For the compound trimethylamine N-oxide [TMAO], the glucose levels entry in test [1] (setting [9]) is recorded as “lowering”. Further, the anti-diabetic effect result in test [1] (FIG. 7, ob/ob mice, 1 g/kg/day IP) is recorded as “act as an anti-diabetic agent in vivo; also recorded: anti-diabetic effect”. Moreover, the insulin levels result in test [1] (animals with insulin resistance and type 2 diabetes, 1 g/kg/day IP) is “lowering”. The ER stress result in test [2] is reported as “reduce ER stress”.
With `O=C(O)CCCc1ccccc1` [PBA, 4-phenyl butyric acid], the “JNK activity in liver tissue” value in test [3] was “normalization of JNK activity”. Moreover, in test [4] (FIGS. 4 and 5), the blood glucose result is recorded as “effective in reducing blood glucose” and the insulin sensitivity entry is “increasing insulin sensitivity”. Also, the blood glucose levels result in test [4] (oral route 500 mg/kg/day in two divided doses, 20 days) is on record as “lowers blood glucose levels”. Further, the “insulin sensitivity in vivo” value in test [4] (oral route 500 mg/kg/day, ITT at 15th day) is given as “increases insulin sensitivity”. In addition, the blood glucose levels entry in test [4] (parenteral (intraperitoneal) 1 g/kg/day in three divided doses, 7 days) is listed as “lowers blood glucose levels”. Also, in test [4] (parenteral (intraperitoneal) 1 g/kg/day, ITT on 7th day), the “insulin sensitivity in vivo” value is “increases insulin sensitivity”. In test [2], the “activation of JNK” value was “reduced”, the “phosphorylation of IRE-1α” value is listed as “reduced”, the “phosphorylation of PERK” value is listed as “reduced” and the ER stress entry was “regulate ER stress in animals; also recorded: reduce ER stress”. Moreover, in test [5], the “serine phosphorylation of Akt” value is reported as “increased”; the “tyrosine phosphorylation of insulin receptor, insulin substrate 1-IRS-1 and IRS-1” value is reported as “increased”; the “insulin (receptor) signaling” value was “regulate insulin receptor signaling”.
For `C/C=C(/C)C(=O)O[C@H]1C(C)=C2[C@H]([C@@H]1OC(=O)CCCCCCC)[C@@](C)(OC(C)=O)C[C@H](OC(=O)CCC)[C@@]1(O)[C@H]2OC(=O)[C@@]1(C)O` [thapsigargin], the “insulin receptor signaling (as for tunicamycin)” value in test [6] is listed as “Similar, results were also obtained”.
Consider `CN(C)C(=N)N=C(N)N` [metformin], for which the blood glucose entry in test [7] was “did not have any effect on blood glucose”.
The same measure, in the same setting: for `O=C([O-])CCCc1ccccc1.[Na+]` [sodium 4-phenylbutyrate] the value was “did not have any effect on blood glucose”.
For the compound `C[C@H](CCC(=O)NCCS(=O)(=O)O)[C@H]1CC[C@H]2[C@@H]3[C@@H](O)C[C@@H]4C[C@H](O)CC[C@]4(C)[C@H]3CC[C@]12C` [TUDCA, tauroursodeoxycholic acid], the insulin sensitivity result in test [1] (FIG. 7) is “increase insulin sensitivity”. Besides, the glucose levels entry in test [1] (setting [9]) is given as “reduce blood glucose levels”. For the same compound, in test [2], the “activation of JNK” value was “reduced”, the “phosphorylation of IRE-1α” value is given as “reduced”, the “phosphorylation of PERK” value was “reduced” and the ER stress result is on record as “regulate ER stress in animals; also recorded: reduce ER stress”. Also, in test [5], the “serine phosphorylation of Akt” value is listed as “increased”; the “tyrosine phosphorylation of insulin receptor, insulin substrate 1-IRS-1 and IRS-1” value is “increased”; the “insulin (receptor) signaling” value is recorded as “regulate insulin receptor signaling”. For the same compound, the diabetes result in test [8] (500 mg/kg once a day i.p.) was “reverses diabetes”. In addition, in test [8] (FIG. 6, 500 mg/kg once a day i.p.), the blood glucose levels result was “reduce blood glucose levels”. Moreover, the insulin sensitivity entry in test [8] (FIG. 6, 500 mg/kg once a day i.p., 500 mg/kg) is reported as “increases insulin sensitivity”.
